In PubChem BioAssay AID179 (DTP/NCI, 2004):
pEC50, pIC50: −log10 of the molar value. The source made the active and inactive calls.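 Rule for the calls: active = compounds giving half or more protection of infected cells from virus-caused growth loss, again on retest; inactive = the rest.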

Test system: CEM cells HIV-1 protection, formazan growth assay
Assay: NCI AIDS Antiviral Assay
Conditions: for pIC50: measured here: growth of uninfected CEM cells
Outline: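 Soluble formazan readout of cell growth; CEM cells ± HIV-1; 5 drug concs. ≥50% protection → retest; ≥50% again = moderately active; reproducible 100% = confirmed active.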

SMILES | pEC50 | pIC50 | outcome
CC(=NNC(=S)Nc1ccccc1)c1cccc(C(C)=NNC(=S)Nc2ccccc2)n1 | < 3.70 | 5.03 | –
Cc1c(-c2ccccc2)c(-c2ccc(OCCN(C)C)cc2)n2ccccc12 | < 3.70 | 5.00 | –
C[CH2][Sn]([CH2]C)([S]CCS(=O)(=O)O)[S]CCS(=O)(=O)O | < 3.70 | 5.43 | –
N#CC1CCCCOCCOCCOCCOCCOCCCCCC1=O (stereo not given) | – | – | inactive
S=c1[nH]c2cccc3c2n1C[C@@H]1CCCN1C3 | < 4.49 | 4.77 | –
O=C1/C(=C/c2cc(O)c(O)c(O)c2)Oc2cc(O)cc(OC3OC(CO)C(O)C(O)C3O)c21 (stereo not given) | – | – | inactive
CCOC(=O)/C(C#N)=C\c1ccc(N(CCC(=O)O)CCC(=O)O)c(I)c1 | < 3.30 | < 3.30 | –
CC(=O)Nc1ccc(S(=O)(=O)NN=C2CCCC2)cc1 | < 3.07 | 3.15 | –
COc1ccc(/C=C2\CCC(C)C3=C2N=c2s/c(=C/c4cccc(Br)c4)c(=O)n2C3c2ccc(OC)c(OC)c2)cc1OC (stereo not given) | < 4.30 | < 4.30 | –
O=C1c2ccccc2-c2c1c1ccccc1c(=O)n2CCO | < 4.46 | 5.71 | –
Nc1nc(Cl)c(CO)c(NCC2(CO)CCC2)n1 | < 3.70 | 3.72 | –
Oc1cc(-n2cccn2)c(O)cc1-n1cccn1 | < 4.11 | 4.85 | –
O=C(O)C1C2CC(C1C(=O)O)C1C2N1S(=O)(=O)c1ccccc1 (stereo not given) | < 3.13 | < 3.13 | –
COc1ccc(/C=C2\CN(C)Cc3c2[nH]c(=O)c(C#N)c3-c2ccc(OC)cc2)cc1 | < 3.70 | 4.01 | –
[O]=[Sb][c]1ccc(Br)cc1 | < 3.70 | 5.34 | –
CC(=O)Oc1ccc2c(c1)Cc1cc(N=[N+]([O-])c3ccc4c(c3)Cc3cc(OC(C)=O)ccc3-4)ccc1-2 | < 3.70 | < 3.70 | –
CCOC(=O)CN1C(=O)C(=O)N(c2ccc(OC)c3ccccc23)C1=O | < 3.70 | < 3.70 | –
CC(=O)N/C(=C\C=C\CC=O)SC12CC3CC(CC(C3)C1)C2 | < 3.70 | 4.90 | –
O=c1c(-c2nn[nH]n2)cnc2sc3cc(Cl)ccc3n12 | < 3.70 | 4.05 | –
CCOC(=O)CC(=O)C(=O)NNC1=NCCN1 | < 3.70 | < 3.70 | –
Cc1nc2[nH]ncn2c(=O)c1CCCl | < 3.70 | 4.46 | –

SMILES | pEC50 | pIC50 | outcome
N#CC1C(=O)NC(=O)C(C#N)C12CCCC(C(F)(F)F)C2 (stereo not given) | < 3.70 | < 3.70 | –
O=C1CCC2(c3ccc(Cl)cc3)Nc3cc(Cl)ccc3N12 (stereo not given) | – | – | inactive
CN1NC(C2NN(C)C(=O)N(C)N2)NN(C)C1=O | < 3.01 | 4.48 | –
O=C1C(=O)C(Br)(c2ccccc2)C(=O)C1c1ccccc1 (stereo not given) | < 3.70 | < 3.70 | –
CC1(CO)OC(n2cnc3cncnc32)CC1O (stereo not given) | 4.74 | < 3.70 | –
O=[N+]([O-])c1cccc2nnccc12 | < 3.70 | 4.64 | –
CN(C)Cc1cc(C(=O)/C=C/c2ccccc2)cc(CN(C)C)c1O | < 3.70 | 4.60 | –
Nc1ccc([N+](=O)[O-])cc1N=C/C=C/c1ccccc1 | < 4.99 | < 4.99 | –
COC(=O)C1=C(C)NC(CF)=C(C(=O)OC)C1c1cccc2c(=O)c3ccccc3oc12 (stereo not given) | < 3.70 | 5.46 | –
CCOC(=O)c1c(N2CCCC2)[nH]c(=O)c(C(c2ccco2)c2c(O)c(C(=O)OCC)c(N3CCCC3)[nH]c2=O)c1O | < 3.70 | 3.93 | –
Nn1c(-c2ccccc2Cl)nc2ccccc2c1=O | – | – | inactive
N.N.N.N.N.N#Cc1nn[n-]n1.[Cl-].[Co+3] | < 3.09 | < 3.09 | –
COc1ccc(-c2c(C#N)c(-c3ccccc3)n(NS(=O)(=O)c3ccccc3)c(=O)c2C#N)cc1 | < 3.70 | 4.35 | –
C=CCCCC[P+](c1ccccc1)(c1ccccc1)c1ccccc1 | < 4.70 | 5.84 | –
Cc1ccc([N+](=O)[O-])cc1NC(=O)/C(=N/NC(=S)NN)C1SC(=S)NC1=O (stereo not given) | < 3.52 | < 3.52 | –
COc1cc(/C=C/c2ccnc3ccccc23)ccc1N(C)C | < 3.70 | 5.66 | –
COc1ccc(/C(=C/n2ccnc2)C(=O)c2ccc(OC)c(OC)c2)cc1 | < 3.70 | < 3.70 | –
CC(C)c1cc(=O)oc2c3c(ccc12)OC(C)(C)[C@H](OC(=O)C12CCC(C)(C(=O)O1)C2(C)C)[C@@H]3OC(=O)C12CCC(C)(C(=O)O1)C2(C)C (stereo not given in full) | 6.49 | 4.47 | –
CCOC(=O)/C(N=Nc1ccc(-n2c(C)nc3ccccc3c2=O)cc1)=C(/C)O | < 3.70 | 3.82 | –
CCCCCCCCSc1ncnc2[nH]ncc12 | < 4.10 | 5.07 | –
Cc1cc2c(cc1C)[n+](=O)c(C(=O)C/C(=N/NC(=O)CC#N)C(=O)Nc1ccccc1C(F)(F)F)c(C)n2[O-] | < 4.88 | < 4.88 | –
